Experimental data reported in patent US7713970B2, “Substituted cyclic urea derivatives” (FMC Corporation, priority 2004, dated 2010).

Tested on: tobacco budworm (Heliothis virescens [Fabricius])
Experiment: surface-treated diet test against tobacco budworm
Format: in vivo
Settings: 0.25 millimolar candidate insecticide on the surface of the diet, second instar larvae, five-day exposure; for Percent Mortality: compared to total number of insects infested; for Percent Growth Inhibition: inhibition of insect weight relative to untreated controls
Protocol: Candidate insecticides were evaluated for activity against the tobacco budworm (Heliothis virescens [Fabricius]) in a surface-treated diet test.
In this test one mL of molten (65-70° C.) wheat germ-based artificial diet was pipetted into each well of a four by six (24 well) multi-well plate (ID# 430345-15.5 mm dia.×17.6 mm deep; Corning Costar Corp., One Alewife Center, Cambridge, Mass. 02140). The diet was allowed to cool to ambient temperature before treatment with candidate insecticide.
For a determination of insecticidal activity, solutions of the candidate insecticides were prepared for testing using a Packard 204DT Multiprobe® Robotic System (Packard Instrument Company, 800 Research Parkway, Meriden, Conn. 06450), in which the robot first diluted a standard 50 millimolar DMSO solution of candidate insecticide with a 1:1 water/acetone solution (V/V) in a ratio of 1:7 stock solution to water/acetone. The robot subsequently pipetted 40 microliters of the so-prepared solution onto the surface of the diet in each of three wells in the 24 multi-well plate. The process was repeated with solutions of seven other candidate insecticides. Once treated, the contents of the multi-well plate were allowed to dry, leaving 0.25 millimoles of candidate insecticide on the surface of the diet, or a concentration of 0.25 millimolar. Appropriate untreated controls containing only DMSO on the diet surface were also included in this test.
For evaluations of the insecticidal activity of a candidate insecticide at varying rates of application, the test was established as described above using sub-multiples of the standard 50 millimolar DMSO solution of candidate insecticide. For example, the standard 50 millimolar solution was diluted by the robot with DMSO to give 5, 0.5, 0.05, 0.005, 0.0005 millimolar, or more dilute solutions of the candidate insecticide. In these evaluations there were six replicates of each rate of application placed on the surface of the diet in the 24 multi-well plate, for a total of four rates of application of candidate insecticide in each plate.
In each well of the test plate was placed one second instar tobacco budworm larvea, each weighing approximately five milligrams. After the larvae were placed in each well, the plate was sealed with clear polyfilm adhesive tape. The tape over each well was perforated to ensure an adequate air supply. The plates were then held in a growth chamber at 25° C. and 60% relative humidity for five days (light 14 hours/day).
After the five-day exposure period insecticidal activity for each rate of application of candidate insecticide was assessed as percent inhibition of insect weight relative to the weight of insects from untreated controls, and percent mortality when compared to the total number of insects infested.

`O=c1n(CCCCOc2c(Cl)cc(OCC=C(Cl)Cl)cc2Cl)ccn1-c1ccc(Cl)cc1` [Compound 4] was tested, and the “Percent Mortality” value was 100% and the “Percent Growth Inhibition” value was 100%.

In the case of `O=c1n(-c2ccc(Cl)cc2)cnn1CCCCOc1c(Cl)cc(OCC=C(Cl)Cl)cc1Cl` [Compound 41], the “Percent Mortality” value is reported as 100% and the “Percent Growth Inhibition” value is reported as 100%.

`O=c1n(CCCCOc2c(Cl)cc(OCC=C(Cl)Cl)cc2Cl)cnn1-c1cccc(Cl)c1` [Compound 75] was tested, and the “Percent Mortality” value was 100% and the “Percent Growth Inhibition” value was 100%.

`O=c1n(CCCCOc2c(Cl)cc(OCC=C(Cl)Cl)cc2Cl)cnn1-c1cccc(Cl)c1Cl` [Compound 76] was tested, and the “Percent Mortality” value was 100% and the “Percent Growth Inhibition” value was 100%.

For `O=c1n(CCCCOc2c(Cl)cc(OCC=C(Cl)Cl)cc2Cl)cnn1-c1ccc(Cl)c(Cl)c1` [Compound 80], the “Percent Mortality” value was 100% and the “Percent Growth Inhibition” value was 100%.

With `O=c1n(CCCCOc2c(Cl)cc(OCC=C(Cl)Cl)cc2Cl)cnn1-c1cc(Cl)cc(Cl)c1` [Compound 81] the “Percent Mortality” value was 100% and the “Percent Growth Inhibition” value was 100%.

`CC(C)(C)c1ccc(-n2ncn(CCCCOc3c(Cl)cc(OCC=C(Cl)Cl)cc3Cl)c2=O)cc1` [Compound 83] was tested, and the “Percent Mortality” value was 100% and the “Percent Growth Inhibition” value was 100%.

In the case of `Cc1ccc(-n2ncn(CCCCOc3c(Cl)cc(OCC=C(Cl)Cl)cc3Cl)c2=O)cc1` [Compound 86], the “Percent Mortality” value is reported as 100% and the “Percent Growth Inhibition” value is reported as 100%.

In the case of `O=c1n(CCCCOc2c(Cl)cc(OCC=C(Cl)Cl)cc2Cl)cnn1-c1cc(F)cc(F)c1` [Compound 87], the “Percent Mortality” value is reported as 100% and the “Percent Growth Inhibition” value is reported as 100%.

In the case of `Cc1cc(-n2ncn(CCCCOc3c(Cl)cc(OCC=C(Cl)Cl)cc3Cl)c2=O)ccc1Cl` [Compound 88], the “Percent Mortality” value is reported as 100% and the “Percent Growth Inhibition” value is reported as 100%.

`N#Cc1ccc(-n2ncn(CCCCOc3c(Cl)cc(OCC=C(Cl)Cl)cc3Cl)c2=O)cc1` [Compound 89] was tested, and the “Percent Mortality” value was 100% and the “Percent Growth Inhibition” value was 100%.

In the case of `O=c1n(CCCCOc2c(Cl)cc(OCC=C(Cl)Cl)cc2Cl)cnn1-c1ccc(I)cc1` [Compound 90], the “Percent Mortality” value is reported as 100% and the “Percent Growth Inhibition” value is reported as 100%.

For `O=c1n(CCCCOc2c(Cl)cc(OCC=C(Cl)Cl)cc2Cl)cnn1-c1ccc(Cl)cc1` [Compound 91], the “Percent Mortality” value was 100% and the “Percent Growth Inhibition” value was 100%.

With `O=c1n(CCCCOc2c(Cl)cc(OCC=C(Cl)Cl)cc2Cl)cnn1-c1ccccc1Cl` [Compound 92] the “Percent Mortality” value was 100% and the “Percent Growth Inhibition” value was 100%.

In the case of `O=c1n(CCCCOc2c(Cl)cc(OCC=C(Cl)Cl)cc2Cl)cnn1-c1ccc([N+](=O)[O-])cc1` [Compound 93], the “Percent Mortality” value is reported as 100% and the “Percent Growth Inhibition” value is reported as 100%.

`O=c1n(CCCCOc2c(Cl)cc(OCC=C(Cl)Cl)cc2Cl)cnn1-c1ccccc1` [Compound 94] was tested, and the “Percent Mortality” value was 100% and the “Percent Growth Inhibition” value was 100%.

`O=c1n(CCCCOc2c(Cl)cc(OCC=C(Cl)Cl)cc2Cl)cnn1-c1ccc(OC(F)(F)F)cc1` [Compound 97] was tested, and the “Percent Mortality” value was 100% and the “Percent Growth Inhibition” value was 100%.

In the case of `Cc1ccc(-n2ncn(CCCCOc3c(Cl)cc(OCC=C(Cl)Cl)cc3Cl)c2=O)cc1C` [Compound 99], the “Percent Mortality” value is reported as 100% and the “Percent Growth Inhibition” value is reported as 100%.

In the case of `Cc1cc(C)cc(-n2ncn(CCCCOc3c(Cl)cc(OCC=C(Cl)Cl)cc3Cl)c2=O)c1` [Compound 100], the “Percent Mortality” value is reported as 100% and the “Percent Growth Inhibition” value is reported as 100%.

With `Cc1ccc(-n2ncn(CCCCOc3c(Cl)cc(OCC=C(Cl)Cl)cc3Cl)c2=O)cc1Cl` [Compound 101] the “Percent Mortality” value was 100% and the “Percent Growth Inhibition” value was 100%.

In the case of `O=c1n(CCCCOc2c(Cl)cc(OCC=C(Cl)Cl)cc2Cl)cnn1-c1ccc(Br)cc1` [Compound 104], the “Percent Mortality” value is reported as 100% and the “Percent Growth Inhibition” value is reported as 100%.

For `O=c1n(CCOc2c(Cl)cc(OCC=C(Cl)Cl)cc2Cl)cnn1-c1ccc(C(F)(F)F)cc1` [Compound 105], the “Percent Mortality” value was 100% and the “Percent Growth Inhibition” value was 100%.

With `O=c1n(CCCOc2c(Cl)cc(OCC=C(Cl)Cl)cc2Cl)cnn1-c1ccc(C(F)(F)F)cc1` [Compound 106] the “Percent Mortality” value was 100% and the “Percent Growth Inhibition” value was 100%.

With `O=c1n(CCCCOc2c(Cl)cc(OCC=C(Cl)Cl)cc2Cl)cnn1-c1ccc(C(F)(F)F)cc1` [Compound 107, 4-{4-[4-(3,3-Dichloroprop-2-enyloxy)-2,6-dichlorophenoxy]butyl}-1-[4-(trifluoromethyl)-phenyl]-1,2,4-triazolin-5-one] the “Percent Mortality” value was 100% and the “Percent Growth Inhibition” value was 100%.

For `Cc1nn(-c2ccccc2)c(=O)n1CCCCOc1c(Cl)cc(OCC=C(Cl)Cl)cc1Cl` [Compound 110], the “Percent Mortality” value was 100% and the “Percent Growth Inhibition” value was 100%.

`Cc1nn(-c2ccc(Cl)cc2)c(=O)n1CCCCOc1c(Cl)cc(OCC=C(Cl)Cl)cc1Cl` [Compound 113] was tested, and the “Percent Mortality” value was 100% and the “Percent Growth Inhibition” value was 100%.

`Cc1nn(-c2ccccc2F)c(=O)n1CCCCOc1c(Cl)cc(OCC=C(Cl)Cl)cc1Cl` [Compound 114] was tested, and the “Percent Mortality” value was 100% and the “Percent Growth Inhibition” value was 100%.

For `Cc1nn(-c2ccc(Cl)cc2Cl)c(=O)n1CCCCOc1c(Cl)cc(OCC=C(Cl)Cl)cc1Cl` [Compound 118], the “Percent Mortality” value was 100% and the “Percent Growth Inhibition” value was 100%.

With `Cc1nn(-c2ccc(Cl)cc2F)c(=O)n1CCCCOc1c(Cl)cc(OCC=C(Cl)Cl)cc1Cl` [Compound 123] the “Percent Mortality” value was 100% and the “Percent Growth Inhibition” value was 100%.

`Cc1nn(-c2ccc(C(C)(C)C)cc2)c(=O)n1CCCCOc1c(Cl)cc(OCC=C(Cl)Cl)cc1Cl` [Compound 125] was tested, and the “Percent Mortality” value was 100% and the “Percent Growth Inhibition” value was 100%.

With `Cc1nn(-c2ccc(C(F)(F)F)cc2)c(=O)n1CCCCOc1c(Cl)cc(OCC=C(Cl)Cl)cc1Cl` [Compound 131] the “Percent Mortality” value was 100% and the “Percent Growth Inhibition” value was 100%.

`Cc1nn(-c2ccc(S(=O)(=O)C(F)F)cc2)c(=O)n1CCCCOc1c(Cl)cc(OCC=C(Cl)Cl)cc1Cl` [Compound 135] was tested, and the “Percent Mortality” value was 100% and the “Percent Growth Inhibition” value was 100%.

`CC(C)(C)c1ccc(-n2nnn(CCCCOc3c(Cl)cc(OCC=C(Cl)Cl)cc3Cl)c2=O)cc1` [Compound 291] was tested, and the “Percent Mortality” value was 100% and the “Percent Growth Inhibition” value was 100%.

In the case of `O=c1n(CCCCOc2c(Cl)cc(OCC=C(Cl)Cl)cc2Cl)nnn1-c1ccc(C(F)(F)F)cc1` [Compound 293], the “Percent Mortality” value is reported as 100% and the “Percent Growth Inhibition” value is reported as 100%.

With `O=c1n(CCCCOc2c(Cl)cc(OCC=C(Cl)Cl)cc2Cl)nnn1-c1cc(Cl)cc(Cl)c1` [Compound 299] the “Percent Mortality” value was 100% and the “Percent Growth Inhibition” value was 100%.

For `O=c1n(CCCCOc2c(Cl)cc(OCC=C(Cl)Cl)cc2Cl)nnn1-c1ccc(Cl)cc1` [Compound 300], the “Percent Mortality” value was 100% and the “Percent Growth Inhibition” value was 100%.

For `O=c1n(CCCCOc2c(Cl)cc(OCC=C(Cl)Cl)cc2Cl)nnn1-c1ccc(OC(F)(F)F)cc1` [Compound 303], the “Percent Mortality” value was 100% and the “Percent Growth Inhibition” value was 100%.

With `O=c1n(CCCCOc2c(Cl)cc(OCC=C(Cl)Cl)cc2Cl)nnn1-c1cccc(C(F)(F)F)c1` [Compound 304] the “Percent Mortality” value was 100% and the “Percent Growth Inhibition” value was 100%.

In the case of `O=c1n(CCCCOc2c(Cl)cc(OCC=C(Cl)Cl)cc2Cl)nnn1-c1ccc(Cl)c(Cl)c1` [Compound 306], the “Percent Mortality” value is reported as 100% and the “Percent Growth Inhibition” value is reported as 100%.

For `O=c1n(CCCCOc2c(Cl)cc(OCC=C(Cl)Cl)cc2Cl)nnn1-c1ccccc1` [Compound 307], the “Percent Mortality” value was 100% and the “Percent Growth Inhibition” value was 100%.

`O=c1n(CCOc2c(Cl)cc(OCC=C(Cl)Cl)cc2Cl)nnn1-c1cccc(Cl)c1` [Compound 308] was tested, and the “Percent Mortality” value was 100% and the “Percent Growth Inhibition” value was 100%.

For `O=c1n(CCCOc2c(Cl)cc(OCC=C(Cl)Cl)cc2Cl)nnn1-c1cccc(Cl)c1` [Compound 309], the “Percent Mortality” value was 100% and the “Percent Growth Inhibition” value was 100%.

With `CC1(C)Cc2cccc(-n3nnn(CCCCOc4c(Cl)cc(OCC=C(Cl)Cl)cc4Cl)c3=O)c2O1` [Compound 335] the “Percent Mortality” value was 100% and the “Percent Growth Inhibition” value was 100%.

In the case of `O=c1n(CCCCOc2c(Cl)cc(OCC=C(Cl)Cl)cc2Cl)nnn1Cc1ccccc1` [Compound 512], the “Percent Mortality” value is reported as 100% and the “Percent Growth Inhibition” value is reported as 100%.

For `O=c1n(CCCCOc2c(Cl)cc(OCC=C(Cl)Cl)cc2Cl)nnn1Cc1ccccc1Cl` [Compound 513], the “Percent Mortality” value was 100% and the “Percent Growth Inhibition” value was 100%.

With `O=c1n(CCCCOc2c(Cl)cc(OCC=C(Cl)Cl)cc2Cl)nnn1Cc1cccc(Cl)c1` [Compound 514] the “Percent Mortality” value was 100% and the “Percent Growth Inhibition” value was 100%.
